Measurements: patent US8013112B2, “Compositions comprising human brain natriuretic peptide (BNP) fragments” (Abbott Laboratories, priority 2006, dated 2011)
Bridges are numbered along the chain shown (N, C = ends). Roman numbers before positions name the chains, in order. Where no end group is shown, it is not given here.

Experiments:
[1] = format: in vitro ADME, human
Method: EDTA plasma of healthy human subjects and human BNP plasma specimens were obtained from ProMedDx LLC (Norton, Mass.), shipped on dry ice, and stored at −70° C. before use.
In this study, human BNP degradation products in human BNP specimens and the impact of temperature on degradation was studied. Prior to sample extractions for analysis, each sample was split into two vials and incubated at room temperature for 0 hours (t=0 hour) and 48 hours (t=48 hours), respectively. The samples were then extracted using the methodology described in Example 4 and analyzed by the API 4000.
Experiments were conducted to determine if human BNP n-32 fragments (where n is an interger b=1, 2, 3, 4, 5, 6) were present in the specimen and to evaluate whether aminopeptidase type protease is involved in human BNP degradation. The samples were prepared and analyzed using the same methodology as described in Example 4, except that samples were monitored for human BNP n-32 fragments (n=1, 2, 3, 4, 5, 6[…]).
Next, to determine if ring cleavage products were present, human BNP fragment 5-32x was then monitored prior to and after incubation at room temperature. The samples were not monitored for other human BNP n-32x fragments since these fragments would be formed by the same process as human BNP 5-32x fragments. Additionally, monitoring for more fragments would reduce the detection sensitivity of the method.
Using both of these approaches, human BNP fragments prior to and after room temperature incubation were monitored for both human BNP n-32 fragments and human BNP n-32x fragments for 20 samples.

[2] = Degradation time course of human BNP 1-32 spiked in pooled EDTA plasma of healthy human subjects, LC/MS
From the text: An aliquot of the mixture was taken at various time points with protease inhibitor added and frozen immediately. Samples were extracted along with an internal standard (the internal standard was a biotinylated human BNP mutant. In this mutant, amino acid 32 (histidine) was replaced by alanine and is hereinafter referred to as “Biotin-BNP1-32 (H32A)”) by a monoclonal antibody 106.3 (hereinafter referred to as “mAb 106.3”) coated magnetic microparticles and released human BNP and fragments were analyzed by LC/MS. The relative abundance of each fragments were plotted.
To study human BNP degradation near physiological concentration, an API4000 LC/MS system (Applied Biosystems, Foster City, Calif.) equipped with Agilent 1100 HPLC was used to determine the degradation of human BNP spiked at 5 ng/mL in a pooled normal EDTA plasma. […] The major human BNP degradation products (namely, 1-32, 3-32, 3-30, and 3-30x) and kinetics were analyzed by LC/MS using selected ion monitoring mode according to instrument protocol. […]
The relative concentration of human BNP fragments 3-32, 3-30 and 3-30x were monitored at various time points (0.5, 4, 6, 8, 10, 24 hours). Triply charged human BNP peptides and human BNP fragments, namely, 1-32, 3-32, 3-30, and 3-30x were monitored at m/z 1155.6, 1094.6.

[3] = format: in vitro ADME, human; remark: listed apart in the source
Method: Human BNP was spiked into Human BNP specimens (EDTA plasma) using the same procedure as in Example 2, and the spiked samples were studied using the same methodology as in Example 4. […] However, the cleavage rates appeared to be slower in the heart-failure patient samples: after 8 hours incubation at the room temperature, 80% of the degradation products still contain the C-terminus (human BNP fragment 3-32, human BNP 1-32, and human BNP fragments 3-32X and 1-32x). When the same concentration of human BNP was spiked into a pooled EDTA plasma of healthy human subjects, only 5% of the fragments contain intact C-terminus after 4 hours incubation at room temperature (See, Example 5).

Compound | Human BNP fragment Peak high ranking (T = 0 hours) [1] | relative concentration over the time course of study ([2]; human BNP spiked at 5 ng/mL in pooled normal EDTA plasma, room temperature, 0.5-24 hours (FIG. 7)) | fragments that contain intact C-terminus ([2]; human BNP spiked in pooled EDTA plasma of healthy human subjects, after 4 hours incubation at room temperature) | degradation products that still contain the C-terminus [3] | major cleavage product after incubation at room temperature [1]
CC[C@H](C)[C@@H]1NC(=O)[C@H](CCCNC(=N)N)NC(=O)[C@H](CC(=O)O)NC(=O)[C@H](CCSC)NC(=O)[C@H](CCCCN)NC(=O)[C@H](CCCNC(=N)N)NC(=O)CNC(=O)[C@H](Cc2ccccc2)NC(=O)[C@@H](NC(=O)CNC(=O)[C@H](CO)NC(=O)CNC(=O)[C@H](CCC(N)=O)NC(=O)[C@@H](NC(=O)[C@H](CCSC)NC(=O)[C@H](CCCCN)NC(=O)[C@@H]2CCCN2C(=O)[C@@H](N)CO)C(C)C)CSSC[C@@H](C(=O)N[C@@H](CCCCN)C(=O)N[C@H](C(=O)N[C@@H](CC(C)C)C(=O)N[C@@H](CCCN=C(N)N)C(=O)N[C@@H](CCCN=C(N)N)C(=O)N[C@@H](Cc2cnc[nH]2)C(=O)O)C(C)C)NC(=O)CNC(=O)[C@H](CC(C)C)NC(=O)CNC(=O)[C@H](CO)NC(=O)[C@H](CO)NC(=O)[C@H](CO)NC(=O)[C@H](CO)NC1=O [1-32] | 3 | decreased drastically | 5% | 80% | –
3-30x: Human BNP Fragment Composition: 3-30 with ring cleavage, two fragments (e.g. BNP3-17 and BNP18-30) cross-linked by disulfide bond (chain 1 KMVQGSGCFGRKMDR; chain 2 ISSSSGLGCKVLR; disulfide I:8-II:9 (inferred)) | 5 | – | – | – | –
5-32x: ring-cleaved, cross-linked form of human BNP fragment 5-32 | – | – | – | – | become the major product
5-30x: Human BNP Fragment Composition 5-30x: ring-cleaved, cross-linked form of fragment 5-30 | 4 | – | – | – | –
